Data published in ChEMBL document CHEMBL4834434, “Discovery of Novel and Potent N-Methyl-d-aspartate Receptor Positive Allosteric Modulators with Antidepressant-like Activity in Rodent Models” (J Med Chem, 2021).
Calls of active or inactive are those of the source. The rule behind the calls is not given here.

Columns and labels:
[1] = Brain to blood partition coefficient of the compound; assay type: physicochemical, tissue-based; details: read-out: logBB (converted)
[2] = molecular target: 5-hydroxytryptamine receptor 2C (Rattus norvegicus) (UniProt P08909); assay: Displacement of [3H]-mesulergine from rat cerebral cortex 5HT2CR incubated for 15 mins by liquid scintillation counting analysis; assay type: tissue-based
[3] = Drug concentration in Sprague-Dawley rat plasma at 3 mg/kg, iv measured at 80 mins by LC-MS/MS analysis; assay type: ADME, organism-based
[4] = Drug concentration in Sprague-Dawley rat brain at 3 mg/kg, iv measured at 20 mins by LC-MS/MS analysis; assay type: ADME, organism-based; details: read-out: Ct
[5] = Clearance in ICR mouse at 3 mg/kg, iv measured up to 24 hrs by HPLC-MS/MS analysis; assay type: ADME, organism-based; details: in vivo
[6] = molecular target: Glutamate NMDA receptor; assay: Positive allosteric modulation of C57BL/6 mouse NMDA receptor assessed as potentiation of NMDA-induced current in presence of saturating glutamate by patch-clamp method; assay type: tissue-based, Brain
[7] = Cmax in ICR mouse at 10 mg/kg, po measured up to 24 hrs by HPLC-MS/MS analysis; assay type: ADME, organism-based; set-up: route oral, dose 10 mg/kg, time <=24; details: in vivo
[8] = system: Mus musculus; assay: Antidepressant activity in ICR mouse assessed as decrease in immobility time at 3 to 10 mg/kg, ip measured after 26 mins by forced swim test; assay type: functional, organism-based; details: dose 3-10 mg/kg
[9] = Drug concentration in Sprague-Dawley rat plasma at 3 mg/kg, iv measured at 20 mins by LC-MS/MS analysis; assay type: ADME, organism-based
[10] = Volume of distribution at steady state in ICR mouse at 3 mg/kg, iv measured up to 24 hrs by HPLC-MS/MS analysis; assay type: ADME, organism-based; details: in vivo, read-out: Vdss
[11] = molecular target: Sodium-dependent dopamine transporter (Rattus norvegicus) (UniProt P23977); assay: Displacement of [3H]-WIN35428 from rat striatum DAT; assay type: tissue-based
[12] = Cmax in Sprague-Dawley rat at 10 mg/kg, po measured up to 1280 mins by HPLC-MS/MS analysis; assay type: ADME, organism-based; set-up: route oral, dose 10 mg/kg, time <=1280; details: in vivo
[13] = molecular target: 5-hydroxytryptamine receptor 2A (Homo sapiens) (UniProt P28223); assay: Displacement of [3H]-ketanserin from human 5HT2AR expressed in CHO cells incubated for 30 mins by liquid scintillation counting analysis; assay type: cell-based
[14] = molecular target: Glutamate NMDA receptor (Mus musculus) (UniProt P35436+Q91ZU9+Q03391+P35438+Q01097+Q01098+A2AIR5); assay: Positive allosteric modulation of C57BL/6 mouse NMDA receptor assessed as fold change in compound potentiated NMDA-induced current relative to NMDA current alone at 30 uM measured after 15 to 30 mins by patch-clamp method; assay type: tissue-based; details: Brain, filed as positive allosteric modulator, time 15-30 min
[15] = Drug concentration in ICR mouse plasma at 10 mg/kg, po measured at 2 hrs by LC-MS/MS analysis; assay type: ADME, organism-based
[16] = molecular target: 5-hydroxytryptamine receptor 1A (Homo sapiens) (UniProt P08908); assay: Displacement of [3H]-8-OH-DPAT from human 5HT1AR expressed in CHO cells incubated for 30 mins by liquid scintillation counting analysis; assay type: cell-based
[17] = Cmax in Sprague-Dawley rat at 3 mg/kg, iv measured up to 1280 mins by HPLC-MS/MS analysis; assay type: ADME, organism-based; set-up: route intravenous, dose 3 mg/kg, time <=1280; details: in vivo
[18] = molecular target: hERG (KCNH2) (Homo sapiens, UniProt Q12809); assay: Inhibition of human ERG expressed in CHO cells at 30 uM with holding potential at -80 to -60 mV for 500s followed by raise in potential at +30 mV for 2 sec and subsequent repolarization to -60 mV for 2 sec by whole-cell patch clamp method relative to control; assay type: cell-based; details: CHO cells expressing human ERG
[19] = Drug concentration in ICR mouse plasma at 10 mg/kg, po measured at 0.5 hrs by LC-MS/MS analysis; assay type: ADME, organism-based
[20] = Ratio of drug concentration in brain to plasma in ICR mouse at 3 mg/kg, iv measured at 0.5 hrs by LC-MS/MS analysis; assay type: ADME, organism-based; details: read-out: BPR
[21] = Cytotoxicity against mouse L929 cells assessed as cell growth inhibition at 60 uM measured after 48 hrs by CCK8 assay relative to control; assay type: cell-based
[22] = Volume of distribution at steady state in Sprague-Dawley rat at 3 mg/kg, iv measured up to 1280 mins by HPLC-MS/MS analysis; assay type: ADME, organism-based; details: in vivo
[23] = molecular target: 5-hydroxytryptamine receptor 6 (Homo sapiens) (UniProt P50406); assay: Displacement of [3H]-LSD from human 5HT6 incubated for 30 mins by liquid scintillation counting analysis
[24] = molecular target: Sodium-dependent serotonin transporter (Homo sapiens) (UniProt P31645); assay: Displacement of [3H]-paroxetine from SERT (unknown origin); set-up: dose or concentration left out as unconfirmed
[25] = AUC (0 to t) in ICR mouse at 10 mg/kg, po measured up to 24 hrs by HPLC-MS/MS analysis; assay type: ADME, organism-based; set-up: route oral, dose 10 mg/kg, time <=24; details: in vivo
[26] = Ratio of drug concentration in brain to plasma in ICR mouse at 3 mg/kg, iv measured at 2 hrs by LC-MS/MS analysis; assay type: ADME, organism-based; details: read-out: BPR
[27] = AUC (0 to t) in Sprague-Dawley rat at 10 mg/kg, po measured up to 1280 mins by HPLC-MS/MS analysis; assay type: ADME, organism-based; set-up: route oral, dose 10 mg/kg, time <=1280; details: in vivo
[28] = molecular target: Adrenergic receptor alpha-1 (Rattus norvegicus) (UniProt P15823+P23944+P43140); assay: Displacement of [3H]-prazosin from rat adrenergic alpha 1 receptor incubated for 60 mins by liquid scintillation counting analysis; assay type: protein assay
[29] = Cytotoxicity against African green monkey Vero cells assessed as cell growth inhibition at 60 uM measured after 48 hrs by CCK8 assay relative to control; assay type: cell-based; details: chlorocebus sabaeus
[30] = Ratio of drug concentration in brain to plasma in ICR mouse at 10 mg/kg, po measured at 0.5 hrs by LC-MS/MS analysis; assay type: ADME, organism-based; details: read-out: BPR

Sodium-dependent serotonin transporter (Homo sapiens), sequence (P31645 whole entry, looked up): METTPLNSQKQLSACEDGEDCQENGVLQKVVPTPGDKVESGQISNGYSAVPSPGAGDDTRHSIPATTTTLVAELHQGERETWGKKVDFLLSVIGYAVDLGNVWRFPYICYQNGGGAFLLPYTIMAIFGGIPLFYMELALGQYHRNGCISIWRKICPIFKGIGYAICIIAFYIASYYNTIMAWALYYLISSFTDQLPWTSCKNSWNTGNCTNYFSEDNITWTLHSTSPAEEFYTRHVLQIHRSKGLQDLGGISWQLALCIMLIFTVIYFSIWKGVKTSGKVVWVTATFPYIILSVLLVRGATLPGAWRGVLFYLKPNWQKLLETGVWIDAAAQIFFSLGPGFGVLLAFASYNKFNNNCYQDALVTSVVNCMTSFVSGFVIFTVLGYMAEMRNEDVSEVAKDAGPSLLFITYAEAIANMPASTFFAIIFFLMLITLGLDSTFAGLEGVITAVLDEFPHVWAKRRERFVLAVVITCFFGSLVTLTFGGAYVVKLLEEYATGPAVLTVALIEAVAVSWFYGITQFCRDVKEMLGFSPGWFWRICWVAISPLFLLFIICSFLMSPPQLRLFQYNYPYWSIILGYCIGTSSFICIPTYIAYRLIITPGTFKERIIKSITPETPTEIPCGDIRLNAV
5-hydroxytryptamine receptor 2C (Rattus norvegicus), sequence (P08909 whole entry): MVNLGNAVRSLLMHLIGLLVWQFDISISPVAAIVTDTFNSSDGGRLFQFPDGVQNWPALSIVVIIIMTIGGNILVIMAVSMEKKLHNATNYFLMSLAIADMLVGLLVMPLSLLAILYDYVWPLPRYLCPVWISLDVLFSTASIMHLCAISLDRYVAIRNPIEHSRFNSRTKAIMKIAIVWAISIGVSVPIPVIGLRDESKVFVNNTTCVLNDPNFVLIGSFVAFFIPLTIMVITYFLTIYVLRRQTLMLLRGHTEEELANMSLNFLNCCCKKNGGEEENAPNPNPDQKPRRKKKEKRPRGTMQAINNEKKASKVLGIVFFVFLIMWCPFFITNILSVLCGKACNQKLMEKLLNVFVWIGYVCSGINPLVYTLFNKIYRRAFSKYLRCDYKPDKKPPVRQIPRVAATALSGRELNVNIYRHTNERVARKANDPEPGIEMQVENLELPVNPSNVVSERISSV
5-hydroxytryptamine receptor 1A (Homo sapiens), sequence (P08908 whole entry): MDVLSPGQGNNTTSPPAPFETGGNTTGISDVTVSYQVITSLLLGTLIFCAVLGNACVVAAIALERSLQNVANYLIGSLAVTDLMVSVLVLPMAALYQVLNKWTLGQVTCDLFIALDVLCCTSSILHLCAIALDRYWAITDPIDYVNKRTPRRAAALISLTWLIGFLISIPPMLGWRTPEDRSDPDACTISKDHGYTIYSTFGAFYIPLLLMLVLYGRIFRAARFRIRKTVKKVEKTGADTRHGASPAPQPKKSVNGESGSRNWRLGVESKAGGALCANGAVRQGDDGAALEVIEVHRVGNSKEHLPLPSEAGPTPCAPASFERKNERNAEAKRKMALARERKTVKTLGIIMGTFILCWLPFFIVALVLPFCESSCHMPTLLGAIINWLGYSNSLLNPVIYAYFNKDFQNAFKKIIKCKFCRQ
hERG (KCNH2), sequence (Q12809 whole entry): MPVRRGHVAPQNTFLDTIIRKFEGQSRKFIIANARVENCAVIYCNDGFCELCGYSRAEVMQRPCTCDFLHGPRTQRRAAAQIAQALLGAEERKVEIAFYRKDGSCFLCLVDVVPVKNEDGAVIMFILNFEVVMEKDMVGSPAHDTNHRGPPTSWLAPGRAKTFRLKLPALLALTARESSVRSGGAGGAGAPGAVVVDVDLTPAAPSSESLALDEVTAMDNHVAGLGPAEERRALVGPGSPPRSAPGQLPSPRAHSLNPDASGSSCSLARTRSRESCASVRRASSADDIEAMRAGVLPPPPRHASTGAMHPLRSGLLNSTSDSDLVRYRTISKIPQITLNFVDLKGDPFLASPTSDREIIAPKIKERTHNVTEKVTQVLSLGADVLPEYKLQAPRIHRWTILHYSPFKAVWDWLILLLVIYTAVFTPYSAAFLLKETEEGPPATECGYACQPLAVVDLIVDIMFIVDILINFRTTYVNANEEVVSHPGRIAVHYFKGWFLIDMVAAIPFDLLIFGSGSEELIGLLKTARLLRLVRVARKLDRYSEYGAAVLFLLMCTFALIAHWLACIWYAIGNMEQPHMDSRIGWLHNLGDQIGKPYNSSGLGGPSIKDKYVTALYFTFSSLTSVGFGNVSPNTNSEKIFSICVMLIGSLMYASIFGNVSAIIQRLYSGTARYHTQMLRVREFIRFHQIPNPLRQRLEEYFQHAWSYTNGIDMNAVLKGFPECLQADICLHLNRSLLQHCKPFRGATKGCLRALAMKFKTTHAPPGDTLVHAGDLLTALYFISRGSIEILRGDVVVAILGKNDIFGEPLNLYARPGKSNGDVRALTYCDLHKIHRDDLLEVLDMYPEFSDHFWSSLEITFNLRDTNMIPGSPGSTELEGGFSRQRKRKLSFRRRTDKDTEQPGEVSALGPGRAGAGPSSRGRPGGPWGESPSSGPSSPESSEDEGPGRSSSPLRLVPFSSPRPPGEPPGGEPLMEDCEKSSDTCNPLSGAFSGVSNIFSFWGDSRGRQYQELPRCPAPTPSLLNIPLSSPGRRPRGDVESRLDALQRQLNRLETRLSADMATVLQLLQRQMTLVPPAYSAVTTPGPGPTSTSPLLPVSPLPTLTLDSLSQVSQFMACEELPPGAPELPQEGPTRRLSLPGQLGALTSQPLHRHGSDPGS
5-hydroxytryptamine receptor 6 (Homo sapiens), sequence (P50406 whole entry): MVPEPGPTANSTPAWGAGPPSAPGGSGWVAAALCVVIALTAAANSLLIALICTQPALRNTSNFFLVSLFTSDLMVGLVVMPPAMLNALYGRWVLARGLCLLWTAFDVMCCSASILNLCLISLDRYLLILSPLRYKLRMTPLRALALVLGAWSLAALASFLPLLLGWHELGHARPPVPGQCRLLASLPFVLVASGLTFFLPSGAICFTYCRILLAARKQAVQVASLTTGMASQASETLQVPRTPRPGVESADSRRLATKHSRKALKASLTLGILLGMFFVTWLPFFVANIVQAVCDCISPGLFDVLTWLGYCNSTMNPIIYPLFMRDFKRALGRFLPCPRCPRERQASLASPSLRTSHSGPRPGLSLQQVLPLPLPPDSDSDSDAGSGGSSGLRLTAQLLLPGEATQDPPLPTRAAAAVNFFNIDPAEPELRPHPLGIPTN
5-hydroxytryptamine receptor 2A (Homo sapiens), sequence (P28223 whole entry): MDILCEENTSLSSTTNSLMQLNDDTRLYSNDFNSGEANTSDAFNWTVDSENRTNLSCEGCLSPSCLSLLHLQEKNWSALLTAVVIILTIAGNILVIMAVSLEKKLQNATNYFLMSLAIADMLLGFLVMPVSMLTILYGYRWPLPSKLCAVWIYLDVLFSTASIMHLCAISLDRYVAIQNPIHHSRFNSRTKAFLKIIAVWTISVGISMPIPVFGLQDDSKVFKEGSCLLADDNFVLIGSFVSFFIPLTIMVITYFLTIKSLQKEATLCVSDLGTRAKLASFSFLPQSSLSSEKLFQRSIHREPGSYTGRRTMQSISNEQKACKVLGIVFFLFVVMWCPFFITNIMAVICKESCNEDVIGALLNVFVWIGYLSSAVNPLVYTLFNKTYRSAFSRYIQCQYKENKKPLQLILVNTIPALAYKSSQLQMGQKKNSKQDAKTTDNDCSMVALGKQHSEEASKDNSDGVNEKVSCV
Sodium-dependent dopamine transporter (Rattus norvegicus), sequence (P23977 whole entry): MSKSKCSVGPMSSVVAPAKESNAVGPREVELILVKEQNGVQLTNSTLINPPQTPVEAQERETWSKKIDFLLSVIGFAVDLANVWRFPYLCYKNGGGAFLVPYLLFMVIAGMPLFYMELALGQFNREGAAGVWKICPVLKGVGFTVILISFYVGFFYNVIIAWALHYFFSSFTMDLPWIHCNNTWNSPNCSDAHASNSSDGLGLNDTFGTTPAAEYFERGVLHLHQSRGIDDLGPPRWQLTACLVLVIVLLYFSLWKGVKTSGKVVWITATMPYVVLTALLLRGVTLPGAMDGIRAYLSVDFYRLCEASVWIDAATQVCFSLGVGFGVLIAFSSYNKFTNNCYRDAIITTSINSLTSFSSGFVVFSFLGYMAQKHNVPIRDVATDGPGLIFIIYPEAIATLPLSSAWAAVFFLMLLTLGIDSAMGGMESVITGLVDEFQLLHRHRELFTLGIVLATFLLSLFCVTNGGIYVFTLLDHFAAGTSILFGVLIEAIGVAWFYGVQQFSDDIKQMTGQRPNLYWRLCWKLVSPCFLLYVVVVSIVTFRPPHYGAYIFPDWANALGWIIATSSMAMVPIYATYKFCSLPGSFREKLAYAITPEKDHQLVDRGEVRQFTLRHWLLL

## Cc1cc(C)n(Cc2ccc(C(=O)Nc3ccc(Cl)c(Cl)c3)s2)n1
[1]
  Kp: 1.26
[2]
  inhibition: inactive
[3]
  concentration at 1.333 h: 239 ng/mL
[4]
  concentration at 20 min: 2190 ng/g
[5]
  clearance: 33.3 mL/min/kg
[6]
  EC50: 2400 nM
[7]
  Cmax: 760 ng/mL
[8]
  Activity: Active
[9]
  concentration at 20 min: 1490 ng/mL
[10]
  Vd: 8.3 L/kg
[11]
  inhibition: inactive
[12]
  Cmax: 190 ng/mL
[13]
  inhibition: inactive
[14]
  fold change (FC): 12.5
[15]
  concentration at 2 h: 451 ng/mL
[16]
  inhibition: inactive
[17]
  Cmax: 2350 ng/mL
[18]
  inhibition at 2 s, 30 µM: 35.4%
[19]
  concentration at 0.5 h: 760 ng/mL
[20]
  Kp at 0.5 h: 0.41
[21]
  inhibition at 48 h, 60 µM: 0.5%
[22]
  Vdss: 1.27 L/kg
[23]
  inhibition: inactive
[24]
  inhibition: inactive
[25]
  AUC(0-t) at 24 h: 3050 ng·h/mL
[26]
  Kp at 2 h: 0.34
[27]
  AUC(0-t) at 1280 min: 503 ng·h/mL
[28]
  inhibition: inactive
[29]
  inhibition at 48 h, 60 µM: 21.9%
[30]
  Kp at 0.5 h: 0.37
